Experimental findings from patent US8324390B2, “Tetrazole-substituted anthranilamides as pesticides” (Bayer CropScience AG, priority 2008, dated 2012) are described below.

Series [1] is described as follows: log P determination by HPLC (EEC Directive 79/831 Annex V.A8). The class given is physicochemical. How it is done:
The measurements were carried out using an Agilent 1100 LC system with a 50*4.6 Zorbax Eclipse C18 1.8 μm column (oven temperature 55° C., flow rate 2.0 ml/min).
The following mobile phases were used:
Mobile phase A: acetonitrile+1000 μl of formic acid/l
Mobile phase B: Millipore water+900 μl of formic acid/l

The test system of series [2] is caterpillars of the armyworm (Spodoptera frugiperda). In words: Spodoptera frugiperda test (SPODFR spray treatment). The class given is in vivo. As to conditions: Spodoptera frugiperda, foliar, read-out: effect in % (caterpillars killed). An excerpt: (§1) Solvent: 78.0 parts by weight of acetone
In series [3] the test system is green peach aphid (Myzus persicae). In words: Myzus test (MYZUPE spray treatment). The format is in vivo.
Text: Solvent: 78 parts by weight of acetone
as §1

Series [4] concerns larvae of the mustard beetle (Phaedon cochleariae). In words: Phaedon test (PHAECO spray treatment). As to conditions: Phaedon cochleariae, in Brassica rapa, foliar, read-out: effect in % (beetle larvae killed).
Where [5] appears, read: Myzus persicae, in Brassica rapa, foliar, read-out: effect in % (aphids killed).
[6] abbreviates: reversed-phase HPLC, Zorbax Eclipse C18 column, by HPLC according to EEC Directive 79/831 Annex V.A8, read-out: log P.
The mark [7] stands for this setting: application rate 100 g/ha, maize leaf discs.
[8] abbreviates: Myzus persicae, foliar, application rate 100 g/ha, Chinese cabbage leaf discs, read-out: effect in % (aphids killed).
The mark [9] stands for this setting: reversed-phase HPLC, Zorbax Eclipse C18 column, determined by HPLC according to EEC Directive 79/831 Annex V.A8, read-out: log P.

Like-named read-outs stand apart in the source and are kept apart here.

Take `CNC(=O)c1cc(Cl)cc(C)c1NC(=O)c1cc(C(C)n2nnc(C(F)(F)F)n2)nn1-c1ncccc1Cl` (stereo not shown) [Example 543]: the chromatographic logP in series [1] (log P) is 3.26. Also, the pest or weed control at 100 g/ha in series [2] (in Zea mays), in series [3] (setting [5]) and in series [4] was not below 80% in each case.
With `CNC(=O)c1cc(Br)cc(C)c1NC(=O)c1cc(Cn2nnc(C(F)(F)F)n2)nn1-c1ncccc1Br` [Example 354], the chromatographic logP in series [1] (setting [6]) worked out at 3.12. Besides, the pest or weed control at 100 g/ha in series [2] (setting [7]), in series [3] (setting [8]) and in series [4] was not below 80% in each case.
For `CCNC(=O)c1cc(C#N)cc(C)c1NC(=O)c1cc(Cn2nnc(C(F)(F)F)n2)nn1-c1ncccc1Br` [Example 322], the chromatographic logP in series [1] (setting [6]) was 2.88. Besides, the pest or weed control at 100 g/ha in series [2] (setting [7]), in series [3] (setting [8]) and in series [4] was not below 80% throughout.
Compound `Cc1cc(Cl)cc(C(=O)NC(C)(C)C)c1NC(=O)c1cc(Cn2nnnc2C(F)F)nn1-c1ncccc1Cl` [Example 475] showed a chromatographic logP in series [1] (log P) of 3.09. Moreover, the pest or weed control at 100 g/ha in series [2] (in Zea mays), in series [3] (setting [5]) and in series [4] was not below 80% each time.
`Cc1cc(Cl)cc(C(=O)NC(C)C2CC2)c1NC(=O)c1cc(Cn2nnnc2C(F)F)nn1-c1ncccc1Cl` (stereo not shown) [Example 460] gave a chromatographic logP in series [1] (log P) of 3.07. Moreover, the pest or weed control at 100 g/ha in series [2] (in Zea mays) and in series [4] was not below 80% throughout. In addition, in series [3] (setting [5]), the pest or weed control at 20 g/ha is not below 80%.
For the compound `CNC(=O)c1cc(Cl)cc(C)c1NC(=O)c1cc(Cn2nnnc2C(F)F)nn1-c1ncccc1Cl` [Example 470], the chromatographic logP in series [1] (log P) came out at 2.26. Also, the pest or weed control at 100 g/ha in series [2] (in Zea mays), in series [3] (setting [5]) and in series [4] was not below 80% throughout.
Compound `CNC(=O)c1cc(F)cc(C)c1NC(=O)c1cc(Cn2nnc(C(F)(F)F)n2)nn1-c1ncccc1Cl` [Example 29] had a chromatographic logP in series [1] (log P) of 2.66. The pest or weed control at 100 g/ha in series [2] (in Zea mays), in series [3] (setting [5]) and in series [4] was not below 80% in each case.
`CNC(=O)c1cc(I)cc(C)c1NC(=O)c1cc(Cn2nnc(C(F)(F)F)n2)nn1-c1ncccc1Cl` [Example 65]: the chromatographic logP in series [1] (log P) came to 3.21. The pest or weed control at 100 g/ha in series [2] (in Zea mays), in series [3] (setting [5]) and in series [4] was not below 80% in each case.
With `Cc1cc(I)cc(C(=O)NC(C)(C)C)c1NC(=O)c1cc(Cn2nnc(C(F)(F)F)n2)nn1-c1ncccc1C(F)(F)F` [Example 242], the chromatographic logP in series [1] (setting [6]) worked out at 4.25. For the same compound, the pest or weed control at 100 g/ha in series [2] (setting [7]), in series [3] (setting [8]) and in series [4] was not below 80% each time.
For `Cc1cc(Cl)cc(C(=O)NC2CC2)c1NC(=O)c1cc(Cn2nnnc2C(F)(F)F)nn1-c1ncccc1Br` [Example 487], the chromatographic logP in series [1] (setting [9]) turned out to be 2.9. The pest or weed control at 100 g/ha in series [2] (setting [7]), in series [3] (setting [8]) and in series [4] was not below 80% each time.
In series [1] (log P), `Cc1cc(C#N)cc(C(=O)NC(C)(C)C)c1NC(=O)c1cc(Cn2nnnc2C(F)(F)C(F)(F)F)nn1-c1ncccc1Cl` [Example 446] displayed a chromatographic logP of 3.47. Further, the pest or weed control at 100 g/ha in series [2] (in Zea mays), in series [3] (setting [5]) and in series [4] was not below 80% each time.
`Cc1cc(C#N)cc(C(=O)NC2CC2)c1NC(=O)c1cc(Cn2nnc(C(F)(F)C(F)(F)F)n2)nn1-c1ncccc1Cl` [Example 214]: the chromatographic logP in series [1] (log P) amounted to 3.26. Besides, the pest or weed control at 100 g/ha in series [2] (in Zea mays), in series [3] (setting [5]) and in series [4] was not below 80% each time.
For `Cc1cc(C#N)cc(C(=O)NC(C)(C)C)c1NC(=O)c1cc(Cn2nnnc2C(F)(F)F)nn1-c1ncccc1Br` [Example 483], the chromatographic logP in series [1] (setting [9]) was 3.07. The pest or weed control at 100 g/ha in series [2] (setting [7]), in series [3] (setting [8]) and in series [4] was not below 80% in each case.
As to `Cc1cc(I)cc(C(=O)NC2CCC2)c1NC(=O)c1cc(Cn2nnc(C(F)F)n2)nn1-c1ncccc1Cl` [Example 280], the chromatographic logP in series [1] (log P) turned out to be 3.34. In addition, the pest or weed control at 100 g/ha in series [2] (in Zea mays), in series [3] (setting [5]) and in series [4] was not below 80% in each case.
Turning to `Cc1cc(C#N)cc(C(N)=O)c1NC(=O)c1cc(Cn2nnc(C(F)(F)F)n2)nn1-c1ncccc1C(F)(F)F` [Example 236], in series [1] (setting [6]), the chromatographic logP came to 2.67. Besides, the pest or weed control at 100 g/ha in series [2] (setting [7]), in series [3] (setting [8]) and in series [4] was not below 80% each time.
Consider `CCNC(=O)c1cc(C#N)cc(C)c1NC(=O)c1cc(Cn2nnc(C(F)(F)C(F)(F)F)n2)nn1-c1ncccc1Br` [Example 426], for which the chromatographic logP in series [1] (setting [9]) is 3.23. In addition, the pest or weed control at 100 g/ha in series [2] (setting [7]), in series [3] (setting [8]) and in series [4] was not below 80% each time.
For the compound `Cc1cc(I)cc(C(=O)NCC#N)c1NC(=O)c1cc(Cn2nnc(C(F)(F)F)n2)nn1-c1ncccc1C(F)(F)F` [Example 240], the pest or weed control at 100 g/ha in series [2] (setting [7]), in series [3] (setting [8]) and in series [4] was not below 80% throughout.
Regarding `CNC(=O)c1cc(C#N)cc(C)c1NC(=O)c1cc(C(C)n2nnnc2C(F)(F)F)nn1-c1ncccc1Cl` (stereo not shown) [Example 512], in series [1] (log P), the chromatographic logP worked out at 2.53. The pest or weed control at 100 g/ha in series [3] (setting [5]) and in series [4] was not below 80% throughout.
Turning to `Cc1cc(I)cc(C(=O)NC2CC2)c1NC(=O)c1cc(Cn2nnc(C(F)(F)F)n2)nn1-c1ncccc1C(F)(F)F` [Example 246], the pest or weed control at 100 g/ha in series [2] (setting [7]), in series [3] (setting [8]) and in series [4] was not below 80% in each case.
In turn, `Cc1cc(C)c(NC(=O)c2cc(Cn3nnc(C(F)(F)F)n3)nn2-c2ncccc2Cl)c(C(N)=O)c1` [Example 80] registered a chromatographic logP in series [1] (log P) of 2.62. The pest or weed control at 100 g/ha in series [2] (in Zea mays) and in series [3] (setting [5]) was not below 80% each time.
For the compound `CNC(=O)c1cc(Cl)cc(C)c1NC(=O)c1cc(Cn2nnnc2-c2ccc(C(F)(F)F)cc2)nn1-c1ncccc1Cl` [drawing 606], the “Kill in %/7 days” value in series [3] (100 g/ha, 7 days) is 80%.
A word on the log P: it is a log measure of how a compound divides between an organic and an aqueous phase. Read a high log P as higher lipophilicity. As for `CSC[C@H](C)NC(=O)c1cc(C#N)cc(C)c1NC(=O)c1cc(Cn2nnc(C(F)(F)F)n2)nn1-c1ncccc1Cl` [Example 22], the “log P” value in series [1] came out at 3.27. Also, the pest or weed control at 100 g/ha in series [3] (setting [5]) was not below 80%.
With `Cc1cc(Cl)cc(C(N)=O)c1NC(=O)c1cc(Cn2nnc(C(F)(F)F)n2)nn1-c1ncccc1Cl` [Example 16], the “log P” value in series [1] is given as 2.77. For the same compound, the pest or weed control at 100 g/ha in series [3] (setting [5]) and in series [4] was not below 80% each time.
Regarding `CCNC(=O)c1cc(C)cc(C)c1NC(=O)c1cc(Cn2nnc(C(F)(F)F)n2)nn1-c1ncccc1Cl` [Example 81], in series [1] (log P), the chromatographic logP came to 3.06. The pest or weed control at 100 g/ha in series [2] (in Zea mays) and in series [3] (setting [5]) was not below 80% in each case.
`Cc1cc(C#N)cc(C(=O)NCCC(F)(F)F)c1NC(=O)c1cc(Cn2nnnc2C(F)(F)F)nn1-c1ncccc1Cl` [Example 188] displayed a chromatographic logP in series [1] (log P) of 2.88. Besides, the pest or weed control at 100 g/ha in series [3] (setting [5]) and in series [4] was not below 80% in each case.
As for `Cc1cc(I)cc(C(=O)NC(C)C2CC2)c1NC(=O)c1cc(Cn2nnc(C(F)F)n2)nn1-c1ncccc1Cl` (stereo not shown) [Example 274], in series [1] (log P), the chromatographic logP came out at 3.52. Further, the pest or weed control at 100 g/ha in series [2] (in Zea mays) and in series [3] (setting [5]) was not below 80% each time.
With `Cc1cc(C)c(NC(=O)c2cc(Cn3nnc(C(F)(F)F)n3)nn2-c2ncccc2Cl)c(C(=O)NC(C)C2CC2)c1` (stereo not shown) [Example 82], the chromatographic logP in series [1] (log P) came out at 3.59. Also, the pest or weed control at 100 g/ha in series [2] (in Zea mays) and in series [3] (setting [5]) was not below 80% in each case.
As to `Cc1cc(C#N)cc(C(N)=O)c1NC(=O)c1cc(Cn2nnnc2C(F)(F)C(F)(F)F)nn1-c1ncccc1Br` [Example 517], the chromatographic logP in series [1] (setting [9]) is 2.53. Also, the pest or weed control at 100 g/ha in series [3] (setting [8]) and in series [4] was not below 80% each time.
`CCNC(=O)c1cc(I)cc(C)c1NC(=O)c1cc(Cn2nnc(C(F)(F)F)n2)nn1-c1ncccc1C(F)(F)F` [Example 241]: the pest or weed control at 100 g/ha in series [2] (setting [7]), in series [3] (setting [8]) and in series [4] was not below 80% each time.
Compound `Cc1cc(C)c(NC(=O)c2cc(Cn3nnnc3C(F)(F)F)nn2-c2ncccc2Cl)c(C(=O)NC(C)C)c1` [Example 179] showed a chromatographic logP in series [1] (log P) of 2.94. Moreover, the pest or weed control at 100 g/ha in series [2] (in Zea mays) and in series [3] (setting [5]) was not below 80% each time.
For the compound `Cc1cc(I)cc(C(=O)NC2CC2)c1NC(=O)c1cc(Cn2nnc(C(F)(F)C(F)(F)F)n2)nn1-c1ncccc1Cl` [Example 217], the pest or weed control at 100 g/ha in series [2] (in Zea mays), in series [3] (setting [5]) and in series [4] was not below 80% in each case.
